What follows are compounds tested on testosterone-enhanced ventral prostate and seminal vesicle weights in castrated male Sprague Dawley rats (assay: Ventral Prostate and Seminal Vesicle Weight In Vivo Assay). Conditions: immature castrated rats; once daily for five days, usually orally at 40 mg/kg, with testosterone propionate 2 mg/kg s.c.
Design: species or system rat
Protocol: Immature (approximately 50 g) castrated male Sprague Dawley rats (Charles River) were treated once daily for five days with test compound (usually given orally at 40 mg/kg in a volume of 0.3 mL, in 30% cyclodextrin or 0.5% methylcellulose vehicle) and with testosterone propionate (given subcutaneously by injection at the nape of the neck at 2 mg/kg, in a volume of 0.1 mL in sesame oil). On the sixth day, the rats were euthanized by asphyxiation in carbon dioxide. Ventral prostates and seminal vesicles were removed and their wet weights determined.
A test compound was said to be “active” if the non weight adjusted prostate weight was ≦40 mg or the % Inhibition prostate weight, body weight adjusted was ≧40% @2 mg/day dosage.

Row | Compound | active / inactive (inhibition of testosterone-enhanced prostate weight)
1 | CC(O)(COc1cccc([N+](=O)[O-])c1)c1cc2cc(C#N)c(C(F)(F)F)cc2[nH]1 (centres unmarked) [Compound #428, 2-[1-Hydroxy-1-methyl-2-(3-nitro-phenoxy)-ethyl]-6-trifluoromethyl-1H-indole-5-carbonitrile] | inactive
2 | CC(O)(COc1ccc(C#N)c(C(F)(F)F)c1)c1cc2cc(C#N)c(C(F)(F)F)cc2[nH]1 (centres unmarked) [Compound #429, 2-[2-(4-Cyano-3-trifluoromethyl-phenoxy)-1-hydroxy-1-methyl-ethyl]-6-trifluoromethyl-1H-indole-5-carbonitrile] | inactive
3 | CCSCC(C)(O)Cc1cc2cc([N+](=O)[O-])c(C(F)(F)F)cc2[nH]1 (centres unmarked) [compound 10] | inactive
4 | CCSCC(C)(CO)c1cc2cc([N+](=O)[O-])c(C(F)(F)F)cc2[nH]1 (centres unmarked) [compound 11] | inactive
5 | CCSCC(O)(CSCC)c1cc2cc([N+](=O)[O-])c(C(F)(F)F)cc2[nH]1 [compound 13] | inactive
6 | O=[N+]([O-])c1cc2cc(C3(O)CCSC3)[nH]c2cc1C(F)(F)F (centres unmarked) [compound 18] | inactive
7 | CC(O)(CS(=O)(=O)c1ccc(F)cc1)c1cc2cc(Cl)c(C(F)(F)F)cc2[nH]1 (centres unmarked) [compound 85] | inactive
8 | CC(O)(C[S+]([O-])c1ccc(F)cc1)c1cc2cc(Cl)c(C(F)(F)F)cc2[nH]1 (centres unmarked) [compound 113] | inactive
9 | CSCC(C)(O)c1cc2cc(Cl)c(C(F)(F)F)cc2n1S(C)(=O)=O (centres unmarked) [compound 134] | inactive
10 | CCSCC(C)(O)c1cc2cc(N)c(C(F)(F)F)cc2[nH]1 (centres unmarked) [compound 166] | inactive
11 | CCSCC(C)(OC)c1cc2cc([N+](=O)[O-])c(C(F)(F)F)cc2[nH]1 (centres unmarked) [compound 167] | active
12 | CCS(=O)(=O)CC(C)(O)c1cc2cc([N+](=O)[O-])c(C(F)(F)F)cc2[nH]1 (centres unmarked) [compound 175] | active
13 | CC(C)(O[Si](C)(C)C)c1cc2cc([N+](=O)[O-])c(C(F)(F)F)cc2n1S(C)(=O)=O [compound 269] | inactive
14 | CC(C)(O[Si](C)(C)C)c1cc2cc(Cl)c(C(F)(F)F)cc2n1S(C)(=O)=O [compound 270] | inactive
15 | CC(C)(O)c1cc2cc([N+](=O)[O-])c(C(F)(F)F)cc2n1S(C)(=O)=O [compound 273] | inactive
16 | CC(C)(O)c1cc2cc([N+](=O)[O-])c(C(F)(F)F)cc2[nH]1 [compound 274] | inactive
17 | CC(C)(O)c1[nH]c2cc(C(F)(F)F)c([N+](=O)[O-])cc2c1Cl [compound 275] | active
18 | CC(C)(O)c1[nH]c2cc(C(F)(F)F)c([N+](=O)[O-])cc2c1I [compound 276] | active

Row | Compound | active / inactive (inhibition of testosterone-enhanced prostate weight)
19 | CC(C)(O)c1[nH]c2cc(C(F)(F)F)c([N+](=O)[O-])cc2c1Br [compound 277] | active
20 | CC(C)(O)c1[nH]c2cc(C(F)(F)F)c(C#N)cc2c1I [compound 278] | active
21 | CC(C)(O)c1[nH]c2cc(C(F)(F)F)c(Cl)cc2c1I [compound 279] | inactive
22 | CC(C)(O)c1[nH]c2cc(C(F)(F)F)c(Cl)cc2c1Br [compound 280] | inactive
23 | C=Cc1c(C(C)(C)O)[nH]c2cc(C(F)(F)F)c([N+](=O)[O-])cc12 [compound 281] | inactive
24 | CC(C)(O)c1[nH]c2cc(C(F)(F)F)c(Cl)cc2c1Cl [compound 282] | inactive
25 | CC(C)(O)c1cc2cc(Cl)c(C(F)(F)F)cc2n1S(C)(=O)=O [compound 284] | active
26 | CC(C)(O)c1cc2cc(Cl)c(C(F)(F)F)cc2[nH]1 [compound 285] | inactive
27 | CC(C)(O)c1[nH]c2cc(C(F)(F)F)c(C#N)cc2c1Cl [compound 287] | inactive
28 | CC(C)(O)c1[nH]c2cc(C(F)(F)F)c(C#N)cc2c1Br [compound 288] | active
29 | Cc1c(C(C)(C)O)[nH]c2cc(C(F)(F)F)c(C#N)cc12 [compound 289] | active
30 | Cc1c(C(C)(C)O)[nH]c2cc(C(F)(F)F)c([N+](=O)[O-])cc12 [compound 290] | inactive
31 | CC(C)(O)c1[nH]c2cc(C(F)(F)F)c([N+](=O)[O-])cc2c1C#N [compound 291] | active
32 | CC(C)(O)c1cc2cc(Br)ccc2[nH]1 [compound 294] | inactive
33 | CC(C)(O)c1[nH]c2cc(C(F)(F)F)c(C#N)cc2c1C#N [compound 295] | inactive
34 | N#Cc1cc2cc(C(O)(C(F)(F)F)C(F)(F)F)[nH]c2cc1C(F)(F)F [compound 357] | active
35 | CC(C)(O)c1cc2cc(Cl)c(Cl)cc2[nH]1 [compound 405] | inactive
